In experiment [1] the test system is cerebral vessels of AD model mice. Description: Comparison of vascular binding capacity, two-photon imaging of brain after tail vein administration. The format is in vivo, mouse. The note with it: DiI-labeled nano complexes modified with the targeted peptide, 3 hours, FIG. 4. As to the method:
The AD model animal mice were administered via tail veins with the above-mentioned red fluorescence-labeled nano complexes modified with targeted peptides (containing 8 bridge structure peptides), and were sacrificed 3 hours later. The mice were perfused with normal saline until the blood was not red, and the brain thereof was taken and photographed by a two-photon microscope. The nano complexes bound on cerebral vessels were imaged, and Image J image analysis software was used to analyze the fluorescence intensity of the red fluorescence-labeled nano complexes bound on the cerebral vessels.

Experiment [2] has as its system Mouse-derived cerebrovascular endothelial cells bEnd3 cells. Description: High-content quantitative analysis of cellular uptake of red fluorescence-labeled nano complexes. Format: cell-based. The note with it: DiI-labeled nano complexes modified with the targeted peptide, 5 μg/mL by lipid mass, 6 h; FIG. 3. As to the method:
High-content quantitative analysis was performed to determine cellular uptake of each of the above-mentioned nano complexes. Mouse-derived cerebrovascular endothelial cells bEnd3 cells were seeded in a 96-well plate at a density of 5000/well and cultured for 24 h. The original culture solution was aspirated and discarded, and 100 μL of the above-mentioned 8 red fluorescence-labeled nanostructure solutions (5 μg/mL, calculated by lipid mass) were added, respectively; the mixture was incubated in a cell incubator for 6 h, then fixed with 3.7% formaldehyde at 37° C. for 10 min, nuclear stained with Hoechest for 10 min, washed three times with PBS, and then photographed and subjected to quantitative analysis with a high-content Target Activation procedure. […]
Moreover, a red fluorescence-labeled targeted nano complex was prepared as described in the method of Example 2. Cellular uptake of a targeted peptide-modified nano complex was subjected to high-content quantitative analysis. The cerebrovascular endothelial cells were treated with targeted peptide-modified nano complexes containing targeted peptides of different ratios (1500:1, 1000:1, 500:1, 250:1, 100:1, 30:1, 10:1, and 5:1, the molar ratio of the lipid to the targeted peptide); the mixture was incubated in a cell incubator for 6 h, then fixed, nuclear stained, and subjected to high-content quantitative analysis.

Here are results for 8 substances from US12371691B2, “Nano complex for targeted repairing of neurovascular lesion, and preparation and use thereof” (SHANGHAI JIAOTONG UNIVERSITY SCHOOL OF MEDICINE, priority 2019, dated 2025).

“Also recorded” adds a separate entry of the source. No end group written: not given here.

For the substance “AC-Phe-Ala-Glu-Lys-Phe-Lys-Glu-Ala-Val-Lys-Asp-Tyr-Phe-Ala-Lys-Phe-Trp-Asp-Ile-Ala-Ile-Glu-Leu-Lys-Val-Leu-Met-Glu-Lys-Glu-Leu (Ac-FAEKFKEAVKDYFAKFWDIAIELKVLMEKEL) [R5, targeted peptide with bridge Ile-Ala-Ile; tested as modifier of DiI-labeled nano complex]”, the “fluorescence intensity of nano complexes bound on cerebral vessels (bridge structure peptide screen)” value in experiment [1] is given as “dominant targeted peptides”. For the same substance, in experiment [2], the “uptake of nano complex by cerebrovascular endothelial cells (bridge structure peptide screen)” value (“uptake of nano complex” for short) is listed as “good effect on uptake; also recorded: better uptake”.

In the case of “AC-Phe-Ala-Glu-Lys-Phe-Lys-Glu-Ala-Val-Lys-Asp-Tyr-Phe-Ala-Lys-Phe-Trp-Asp-Gly-Ser-Ser-Ser-Gly-Gly-Glu-Leu-Lys-Val-Leu-Met-Glu-Lys-Glu-Leu (Ac-FAEKFKEAVKDYFAKFWDGSSSGGELKVLMEKEL) [R8, targeted peptide with bridge Gly-Ser-Ser-Ser-Gly-Gly; tested as modifier of DiI-labeled nano complex]”, the “uptake of nano complex” value in experiment [2] is listed as “good effect on uptake”.

In the case of “AC-Phe-Ala-Glu-Lys-Phe-Lys-Glu-Ala-Val-Lys-Asp-Tyr-Phe-Ala-Lys-Phe-Trp-Asp-Ile-Gly-Glu-Leu-Lys-Val-Leu-Met-Glu-Lys-Glu-Leu (Ac-FAEKFKEAVKDYFAKFWDIGELKVLMEKEL) [R3, targeted peptide with bridge Ile-Gly; tested as modifier of DiI-labeled nano complex]”, the “uptake of nano complex” value in experiment [2] was “good effect on uptake”.

Consider “AC-Phe-Ala-Glu-Lys-Phe-Lys-Glu-Ala-Val-Lys-Asp-Tyr-Phe-Ala-Lys-Phe-Trp-Asp-Ile-Ala-Glu-Leu-Lys-Val-Leu-Met-Glu-Lys-Glu-Leu (Ac-FAEKFKEAVKDYFAKFWDIAELKVLMEKEL) [R2, targeted peptide with bridge Ile-Ala; tested as modifier of DiI-labeled nano complex]”, for which the “uptake of nano complex” value in experiment [2] was “good effect on uptake”.

“AC-Phe-Ala-Glu-Lys-Phe-Lys-Glu-Ala-Val-Lys-Asp-Tyr-Phe-Ala-Lys-Phe-Trp-Asp-Gly-Gly-Glu-Leu-Lys-Val-Leu-Met-Glu-Lys-Glu-Leu (Ac-FAEKFKEAVKDYFAKFWDGGELKVLMEKEL) [R1, targeted peptide with bridge Gly-Gly; tested as modifier of DiI-labeled nano complex]”: in experiment [1], the “fluorescence intensity of nano complexes bound on cerebral vessels (bridge structure peptide screen)” value is recorded as “dominant targeted peptides”. The “uptake of nano complex” value in experiment [2] is “good effect on uptake; also recorded: better uptake”.

For “AC-Phe-Ala-Glu-Lys-Phe-Lys-Glu-Ala-Val-Lys-Asp-Tyr-Phe-Ala-Lys-Phe-Trp-Asp-Gly-Ala-Gly-Ala-Glu-Leu-Lys-Val-Leu-Met-Glu-Lys-Glu-Leu (Ac-FAEKFKEAVKDYFAKFWDGAGAELKVLMEKEL) [R6, targeted peptide with bridge Gly-Ala-Gly-Ala; tested as modifier of DiI-labeled nano complex]”, the “fluorescence intensity of nano complexes bound on cerebral vessels (bridge structure peptide screen)” value in experiment [1] is given as “dominant targeted peptides”. Also, the “uptake of nano complex” value in experiment [2] was “good effect on uptake; also recorded: better uptake”.

Regarding “AC-Phe-Ala-Glu-Lys-Phe-Lys-Glu-Ala-Val-Lys-Asp-Tyr-Phe-Ala-Lys-Phe-Trp-Asp-Gly-Gly-Ser-Gly-Gly-Glu-Leu-Lys-Val-Leu-Met-Glu-Lys-Glu-Leu (Ac-FAEKFKEAVKDYFAKFWDGGSGGELKVLMEKEL) [R7, targeted peptide with bridge Gly-Gly-Ser-Gly-Gly; tested as modifier of DiI-labeled nano complex]”, in experiment [2], the “uptake of nano complex” value is reported as “good effect on uptake”.

For the substance “AC-Phe-Ala-Glu-Lys-Phe-Lys-Glu-Ala-Val-Lys-Asp-Tyr-Phe-Ala-Lys-Phe-Trp-Asp-Gly-Ser-Gly-Glu-Leu-Lys-Val-Leu-Met-Glu-Lys-Glu-Leu (Ac-FAEKFKEAVKDYFAKFWDGSGELKVLMEKEL) [R4, targeted peptide with bridge Gly-Ser-Gly; tested as modifier of DiI-labeled nano complex]”, in experiment [1], the “fluorescence intensity of nano complexes bound on cerebral vessels (bridge structure peptide screen)” value is given as “dominant targeted peptides; also recorded: optimal targeted peptide”. The “uptake of nano complex” value in experiment [2] is listed as “good effect on uptake; also recorded: better uptake; also recorded: best uptake”.
